Data set [1] in a line: DPPH radical scavenging activity assay. The note with it: half maximal effective concentration; triplicate; read-out: DPPH Radical Scavenging Activity (EC50 ± SD). The method, then: The DPPH radical scavenging activities of 1–4 were determined by the reported method. In a 96-well plate, 100 μL of sample solution (in MeOH) was mixed with 100 μL of DPPH solution (0.16 mM in MeOH), shaken several times, and then incubated at room temperature for 30 min. The absorbance at 517 nm was recorded. Ascorbic acid was used as the positive control, and the experiments were performed in triplicate.

A further data set addresses α-glucosidase. Briefly: α-glucosidase inhibitory activity assay (pNPG hydrolysis). Type of data set: biochemical. To be noted: 50% inhibitory concentration; triplicate; read-out: α-Glucosidase Inhibitory Activity (IC50 ± SD). The method, then:
The α-glucosidase inhibitory activity was determined by measuring the absorbance increase resulting from the hydrolysis of p-nitrophenyl-α-D-glucopyranoside (pNPG, TCI) by α-glucosidase at 405 nm using a microplate reader, according to the reference to previously reported literature. The 130 μL sample solution (in 0.1 mM PBS) with the 30 μL α-glucosidase solution (0.2 U/mL) was incubated at 37 °C for 10 min. Subsequently, 40 μL of 5 mM pNPG was added. The reaction mixture was further incubated at 37 °C for 20 min. The α-glucosidase inhibitory activity was determined using a microplate reader at 405 nm. The negative control was prepared by substituting PBS buffer for the sample in the same way as the test.

Data set [2] relates to RPMI-8402, T cell acute lymphocytic leukemia. In words: Cytotoxicity assay, RPMI-8402 blood cancer cell line. Type of data set: cell-based. The note with it: Homo sapiens, 50% growth inhibitory concentration, triplicate, read-out: Cytotoxic Activity (GI50 ± SD, μM) RPMI-8402. The method, then:
(§1) NMR spectra were acquired with a Bruker AVANCE III 600 spectrometer (Bruker Biospin GmbH, Rheinstetten, Germany) with a 3 mm probe operating at 600 MHz (^1H) and 150 MHz (^13C). Chemical shifts were expressed in ppm with reference to the solvent peaks (δH 3.31 and δC 49.15 ppm for CD3OD). UV spectra were recorded with a Shimadzu UV-1650PC spectrophotometer (Shimadzu Corporation, Kyoto, Japan). IR spectra were obtained on an OPUS FT/IR-ALPHA II spectrophotometer (Bruker OPTIK GmbH & Co. KG, Ettlingen, Germany). Optical rotations were measured with a Rudolph analytical Autopol III S2 polarimeter (Rudolph Research Analytical, Hackettstown, NJ, USA). LR-ESIMS data were obtained with an ISQ EM mass spectrometer. HR-ESIMS data were obtained with a Waters SYNPT G2 Q-TOF mass spectrometer (Waters Corporation, Milford, MA, USA) at the Korea Basic Science Institute (KBSI) in Cheongju, Republic of Korea. ECD spectra were recorded with a JASCO J-1500 circular dichroism spectrometer (JASCO Corporation, Tokyo, Japan) at the Center for Research Facilities, Changwon National University, in Changwon, Republic of Korea. HPLC was performed using a BLS-Class pump (Teledyne SSI, Inc., State College, PA 16803, USA) with a Shodex RI-201H refractive index detector (Shoko Scientific Co., Ltd., Yokohama, Japan). Columns for HPLC were YMC-Triart C18 (250 mm × 10 mm, 5 μm), YMC-Triart C8 (250 mm × 10 mm, 5 μm), and YMC-CHIRAL PREP CD PM (250 mm × 4.6 mm, S-10 μm). RP silica gel (YMC-Gel ODS-A, 12 nm, S-75 μm) was used for open-column chromatography. Organic solvents were purchased as HPLC grade, and ultrapure waters were obtained from the Milipore Mili-Q Direct 8 system. The reagents used in the bioassay were purchased from Sigma-Aldrich and Tokyo Chemical Industry. Cancer cell lines were purchased from the Japanese Cancer Research Resources Bank (JCRB) (NUGC-3, JCRB Cell Bank/Cat. # JCRB0822), the DSMZ-German Collection of Microorganisms and Cell Cultures (RPMI-8402, DSMZ/Cat # ACC 290; WSU-DLCL2, DSMZ/Cat # ACC 575), and the American Type Culture Collection (ATCC) (PC-3, ATCC/Cat. # CRL-1435; MDA-MB-231, ATCC/Cat. # HTB-26; ACHN, ATCC/Cat. # CRL-1611; NCI-H23, ATCC/Cat. # CRL-5800; HCT-15, ATCC/Cat. # CCL-225; HL-60, ATCC/Cat. # CCL-240; Raji, ATCC/Cat # CCL-86; K562, ATCC/Cat # CCL-243; NALM6, ATCC/Cat # CRL-3273; U266, ATCC/Cat # TIB-196).
(§2) The cytotoxic activities of 1–4 were measured using the CellTiter-Glo luminescent cell viability assay (Promega, Madison, WI, USA) and conducted by the […], as previously described. The luminescence signal was quantified using a GloMax-Multi Detection System (Promega, Madison, WI, USA), and GI50 values were determined utilizing a relative GI50 model in GraphPad Prism (GraphPad, San Diego, CA, USA). Doxorubicin was used as the positive control.

For data set [3], the system named is NALM6, B cell acute lymphocytic leukemia. In words: Cytotoxicity assay, NALM6 blood cancer cell line. The note with it: triplicate, read-out: Cytotoxic Activity (GI50 ± SD, μM) NALM6. In kind it is cell-based. Here is the method:
as §1, §2

The mark [4] stands for this setting: 50% growth inhibitory concentration.
Where [5] appears, read: Homo sapiens, NALM-6, 50% growth inhibitory concentration.

Read-outs that look alike come from different tables or passages of the source.

On to `O=C1O[C@H]([C@@H](O)CO)C(O)=C1O` [Ascorbic acid, reference compound], for which the EC50 (commonly the concentration that produces a half-maximal response) in data set [1] is 7.81 ± 0.25 µM.
Consider `O=C1CCc2c1ccc(O)c2O` [Compound 1, 4,5-dihydroxyindan-1-one], for which the EC50 in data set [1] was 7.47 ± 0.13 µM. At α-glucosidase, the IC50 (commonly the concentration at which inhibition is half-maximal) turned out to be 184 ± 2.93 µM. Further, the GI50 (usually the concentration at which growth is held to half of that of the control) in data set [2] worked out at 21 ± 0.47 µM; in data set [3] (setting [4]), 9.47 ± 0.41 µM; in data set [3] (setting [5]), 9.48 µM.
Taken in the same sequence, the figures for `O=C1NCc2c1ccc(O)c2O` [Compound 2, 4,5-dihydroxyisoindolin-1-one] were 6.82 ± 0.06 µM, 199.7 ± 1.87 µM, above 30 µM, 29.6 ± 2.27 µM and 29.4 µM.
Consider `O=C1C[C@@H](O)c2c1ccc(O)c2O` [Compound 3, meirol B], for which the EC50 in data set [1] came to 6.01 ± 0.07 µM. Further, the IC50 on α-glucosidase is 367.4 ± 3.01 µM. The GI50 in data set [2] and in data set [3] (setting [5]) was above 30 µM in each case.
Take `O=C1c2ccc(O)c(O)c2C[C@@H]1O` [Compound 4, meirol C]: the EC50 in data set [1] turned out to be 6.2 ± 0.12 µM. Besides, on α-glucosidase, the IC50 was above 555 µM. In addition, the GI50 in data set [2] and in data set [3] (setting [5]) was above 30 µM throughout.
With `COc1cccc2c1C(=O)c1c(O)c3c(c(O)c1C2=O)C[C@@](O)(C(=O)CO)C[C@@H]3O[C@H]1C[C@H](N)[C@H](O)[C@H](C)O1` [Doxorubicin, reference compound], the GI50 in data set [2] was determined as 0.015 ± 0.0013 µM; in data set [3] (setting [5]) it was 0.003 ± 0.0006 µM.

(Values after paper PMC10890530, “Meirols A–C: Bioactive Catecholic Compounds from the Marine-Derived Fungus Meira sp. 1210CH-42” (Marine Drugs, 2024).)
